For data set [1], the system named is subarachnoid hemorrhage in rats. The data set can be described thus: Rat subarachnoid hemorrhage (SAH) model by intravascular puncture, Sugawara bleeding score. Format: in vivo. More on the design: dose or concentration left out as unconfirmed. Conditions: tail vein injection, 2 administrations 4 h apart, scored 24 h after first administration (Sugawara). As to the method:
Rat subarachnoid hemorrhage (SAH) model was built by intravascular puncture. After being weighed, the rats were anesthetized with sodium pentobarbital (50 mg/kg) or chloral hydrate (300 mg/kg) by intraperitoneal injection, then fixed on their back and maintained the animal's body temperature at about 37° C. The rats' neck skin was shaved for surgery, a median incision was made on the neck, and muscle and fascia were separated along the inner edge of stemocleidomastoid muscle to expose the main and bifurcation of right common carotid artery, and expose the external and internal carotid arteries.
The bifurcation of internal carotid artery was gently clamped with ophthalmic forceps, the bifurcation of the internal carotid artery and the external carotid artery was pierced with a 6-gauge syringe needle, the ophthalmic forceps holding the bifurcation of internal carotid artery was slightly loosen, and No. 3 fishing thread was used to perform a puncture at the bleeding point, the ophthalmic forceps on the internal carotid artery was loosen, and the fishing thread was inserted into skull. […] After staying for 15 seconds, the thread for puncture was completely removed, and the skin was sutured after compression to stop the bleeding. 1.6 million units of penicillin potassium (400,000 units/ml, 0.2 ml/rat) was intramuscularly injected to avoid wound infection. For the sham operation group, the thread for puncture was removed when resistance was felt without piercing the bifurcation of the anterior cerebral artery and the middle cerebral artery, while the remaining operation steps were the same as the model group. After the operation, the rats were transferred to a thermal insulation blanket, then transferred to a squirrel cage when they were basically awake, and kept normally.
In this test experimental, 32 groups were set, i.e., Groups 1 to 32, in which Group 1 was a normal control group (healthy rats), Group 2 was a sham operation control group (not modeling by puncture), Group 3 was a model control group (modeling by puncture, administrated with normal saline), Group 4 was a positive control group (modeling by puncture, administrated with fasudil hydrochloride injection), and Groups 5 to 32 were test groups of the compounds of the present application (modeling by puncture, respectively administrated with the compounds of the present application); and there were 8 animals (purchased from SPF (Beijing) Biotechnology Co., Ltd., the certificate number was SYXK (Beijing) 2016-0002) in each group, half of them were female and half of them were male. The animals were subjected to fasting for 12 to 18 hours without prohibition of drinking water before modeling. […] The rats were euthanized 24 h after the first administration, and the brains were taken. According to Sugawara's method (Reference: Sugawara T, Ayer R, Jadhav V, et al. A new grading system evaluating bleeding scale in filament perforation subarachnoid hemorrhage rat model. J Neurosci Methods. 2008, 167(2):327-34), the subarachnoid hemorrhage amounts were scored, and the scoring results were as follows: […]

The next data set has as its system prostacyclin (PGI2). The data set can be described thus: Expression of prostacyclin (PGI2) in EA.Hy926 endothelial cells, ELISA kit. The format is cell-based. Conditions: EA.Hy926 cell supernatant, 24 h. As to the method:
(§1) Commercially available cytokine kits were used to detect the effects of the compounds of the present application on vascular endothelium-derived contracting factor endothelin, vascular endothelium-derived relaxing factor endothelial nitric oxide synthase, nitric oxide, and prostacyclin factor. The detection was performed according to the kit instructions. When testing the effect of the compound of the present application on cytokines, a normal control group, a fasudil hydrochloride group, and high-, medium- and low-dose groups of the compounds of the present application were set up for testing. The fasudil hydrochloride used in this test example was purchased from Beijing Sihuan Pharmaceutical Co., Ltd., with the SFDA approval number of H20173349. The EA.Hy926 cells used in this test example were purchased from Suzhou Beina Chuanglian Biotechnology Co., Ltd.
EA.Hy926 cells were taken and inoculated in a 96-well plate at 5×10^4 cells/mL, 100 μL per well, and cultured adherently for 24 hours, then the test compound prepared in DMEM medium was added, and an equal volume of DMEM medium was added in the normal control group, then the cells were cultured at 37° C. for 24 hours, and then the cell supernatant was taken and placed in an EP tube, and centrifuged for 15 min at 3000 r/min and 15° C. The resulting supernatant was transferred to a new EP tube, and then the detection was performed according to the instruction of ELISA kit (purchased from Wuhan Elabscience Biotechnology Co., Ltd., Cat. No. E-EL-0022c), and the detection results were shown in Table 3.
On the technique in general: An ELISA detects its analyte on a solid surface through an enzyme-linked reagent.

A short description of data set [2]: Toxicity test on endothelial cells EA.hy926, CCK-8 cell viability. The format is cell-based. The conditions noted are these: human, 1000~0.32 μmol/L, 5-fold dilution, read-out: IC50 of Test compound (cytotoxicity on EA.hy926 cells). As to the method:
In this test example, 31 groups, i.e., Groups 1 to 31, were set, in which Group 1 was a blank control group, Group 2 was a normal control group, Group 3 was a positive control group, and Groups 4 to 31 were test groups of the compounds of the present application. The specific test operation comprised: 100 μL of endothelial cells EA.hy926 (purchased from Suzhou Beina Chuanglian Biotechnology Co., Ltd.) with a density of 5×10^4 was added to each well of a 96-well plate, and transferred to an incubator at 37° C. with 5% CO2 and saturated humidity conditions and cultured for 24 hours, 100 μL of 2× the test compound solution prepared and diluted with DMEM medium containing 10% fetal bovine serum was added, in which the test compound added in the positive control group was Fasudil hydrochloride (purchased from Beijing Sihuan Pharmaceutical Co., Ltd., SFDA approval number H20173349) solution with different concentrations, an equal volume of DMEM medium was added in the blank control group, an equal volume of PBS buffer was added in the normal control group, and a duplicate well was set for each concentration point. After adding the test compound, the culture was continued in the incubator for 24 hours, then 20 μL of CCK-8 detection solution (purchased from Beijing Solarbio Science & Technology Co., Ltd., Cat. No. CA1210) was added to each well, interacted at 37° C. for 2.5 hours, shaken and mixed well, and then the absorbance value at 450 nm was detected.
OD values were detected, and the cell viability values of test groups of different concentrations were calculated according to the cell viability calculation formula as follows: Cell viability=(Atest group−Ablank control)/(Anormal control−Ablank control)*100%
wherein A represented absorbance value at 450 nm.
Prism6.0 was used to obtain the inhibitor concentration-viability curve and to calculate the IC50 of the test compound, the correlation coefficient R^2>0.99; the inhibitor concentration-viability curves of Fasudil hydrochloride, R-YK1601, R-YK1603, R-YK1606, R-YK1607, R-YK1610 were shown in FIGS. 1 to 6, in which the abscissa was the logarithm on base 10 of the concentration of the test compound, and the ordinate was the cell activity (i.e., cell viability).

Another data set relates to nitric oxide (NO). The experiment in a line: Synthesis and secretion of nitric oxide (NO) in EA.Hy926 endothelial cells, NO detection kit. The format is cell-based. Conditions: EA.Hy926 cell supernatant, 24 h. How it is done:
as §1
EA.Hy926 cells were inoculated in a 24-well plate at 5×10^5 cells/mL, 400 μL per well, and cultured adherently for 18 hours, then the supernatant was discarded, the test compound prepared in DMEM medium was added, and an equal volume of DMEM medium was added in the normal control group, then the cells was cultured for 24 h in incubator, and then the cell supernatant was collected and detected according to the instructions of NO detection kit (purchased from Beyotime Institute of Biotechnology, Cat. No. 062617171017), and the detection results were shown in Table 5.

The term IC50 denotes the concentration that gives 50% inhibition. For `C[C@@H]1CNCCCN1S(=O)(=O)c1cccc2c(O)ncc(C3CC3)c12` [Compound R-YK1600-1, (R)-4-cyclopropyl-5-((2-methyl-1,4-diazacycloheptan-1-yl)sulfonyl)isoquinolin-1-ol], the “Cerebral hemorrhage volume score (x ± s)” value in data set [1] is 13.37 ± 2.56. Moreover, in the data set on prostacyclin (PGI2), the “expression of prostacyclin in endothelial cells: Detection result of test compound at low dose (0.4 μM)” value (shortened to “expression of prostacyclin … (0.4 μM)”) turned out to be 243.20 ± 2.28 pg/mL, the “expression of prostacyclin in endothelial cells: Detection result of test compound at medium dose (2 μM)” value (from here on “expression of prostacyclin … (2 μM)”) is 242.34 ± 7.96 pg/mL and the “expression of prostacyclin in endothelial cells: Detection result of test compound at high dose (10 μM)” value (“expression of prostacyclin … (10 μM)” below) stood at 247.68 ± 3.34 pg/mL. The IC50 at 24 h in data set [2] was 188 µM. For the same compound, in the data set on nitric oxide (NO), the “nitric oxide secretion in endothelial cells: Detection result of test compound at low dose (0.4 μM)” value (from here on “nitric oxide secretion … (0.4 μM)”) is on record as 1.012 ± 0.053 μm, the “nitric oxide secretion in endothelial cells: Detection result of test compound at medium dose (2 μM)” value (“nitric oxide secretion … (2 μM)” for short) is reported as 1.099 ± 0.201 μm and the “nitric oxide secretion in endothelial cells: Detection result of test compound at high dose (10 μM)” value (“nitric oxide secretion … (10 μM)” below) is 1.148 ± 0.251 μm.
Consider `COc1ncc(C2CC2)c2c(S(=O)(=O)N3CCCNC[C@H]3C)cccc12` [Compound R-YK1600-2, (R)-4-cyclopropyl-1-methoxy-5-((2-methyl-1,4-diazacycloheptan-1-yl)sulfonyl)isoquinoline], for which the “Cerebral hemorrhage volume score (x ± s)” value in data set [1] is reported as 13.59 ± 2.67. In the data set with prostacyclin (PGI2), the “expression of prostacyclin … (0.4 μM)” value is 241.55 ± 0.12 pg/mL, the “expression of prostacyclin … (2 μM)” value was determined as 245.98 ± 11.41 pg/mL and the “expression of prostacyclin … (10 μM)” value came to 249.23 ± 0.75 pg/mL. Moreover, in data set [2], the 50% inhibitory concentration (IC50) at 24 h is 145 µM. Besides, in the data set with nitric oxide (NO), the “nitric oxide secretion … (0.4 μM)” value amounted to 0.982 ± 0.096 μm, the “nitric oxide secretion … (2 μM)” value is 1.037 ± 0.062 μm and the “nitric oxide secretion … (10 μM)” value was 1.139 ± 0.263 μm.
Regarding `C[C@@H]1CNCCCN1S(=O)(=O)c1cccc2c(O)nccc12` [Compound R-YK1601, (R)-5-((2-methyl-1,4-diazacycloheptan-1-yl)sulfonyl)isoquinolin-1-ol], the “Cerebral hemorrhage volume score (x ± s)” value in data set [1] is reported as 11.75 ± 2.05. In the data set with prostacyclin (PGI2), the “expression of prostacyclin … (0.4 μM)” value amounted to 253.00 ± 5.55 pg/mL, the “expression of prostacyclin … (2 μM)” value is 253.52 ± 55.60 pg/mL and the “expression of prostacyclin … (10 μM)” value was 227.01 ± 16.23 pg/mL. In addition, the IC50 at 24 h in data set [2] worked out at 686 µM. Besides, in the data set with nitric oxide (NO), the “nitric oxide secretion … (0.4 μM)” value was 0.806 ± 0.057 μm, the “nitric oxide secretion … (2 μM)” value amounted to 0.896 ± 0.147 μm and the “nitric oxide secretion … (10 μM)” value worked out at 1.131 ± 0.134 μm.
For `COc1nccc2c(S(=O)(=O)N3CCCNC[C@H]3C)cccc12` [Compound R-YK1602, (R)-1-methoxy-5-((2-methyl-1,4-diazacycloheptan-1-yl)sulfonyl)isoquinoline], in data set [1], the “Cerebral hemorrhage volume score (x ± s)” value is 11.95 ± 2.04. Moreover, in the data set with prostacyclin (PGI2), the “expression of prostacyclin … (0.4 μM)” value is 248.71 ± 19.98 pg/mL, the “expression of prostacyclin … (2 μM)” value amounted to 263.34 ± 15.04 pg/mL and the “expression of prostacyclin … (10 μM)” value was 241.51 ± 16.58 pg/mL. Besides, the IC50 at 24 h in data set [2] came out at 433 µM. For the same compound, in the data set with nitric oxide (NO), the “nitric oxide secretion … (0.4 μM)” value is reported as 0.878 ± 0.006 μm, the “nitric oxide secretion … (2 μM)” value is on record as 0.914 ± 0.032 μm and the “nitric oxide secretion … (10 μM)” value is 1.005 ± 0.006 μm.
For `C[C@@H]1CNCCCN1S(=O)(=O)c1cccc2cnccc12` [Compound R-YK1603, (R)-5-((2-methyl-1,4-diazacycloheptan-1-yl)sulfonyl)isoquinoline], the “Cerebral hemorrhage volume score (x ± s)” value in data set [1] is on record as 12.06 ± 1.98. Besides, in the data set on prostacyclin (PGI2), the “expression of prostacyclin … (0.4 μM)” value is 262.30 ± 0.77 pg/mL, the “expression of prostacyclin … (2 μM)” value amounted to 272.58 ± 4.40 pg/mL and the “expression of prostacyclin … (10 μM)” value amounted to 243.73 ± 15.66 pg/mL. Also, the IC50 at 24 h in data set [2] was 256 µM. Moreover, in the data set with nitric oxide (NO), the “nitric oxide secretion … (0.4 μM)” value was determined as 1.207 ± 0.000 μm, the “nitric oxide secretion … (2 μM)” value was found to be 0.743 ± 0.070 μm and the “nitric oxide secretion … (10 μM)” value is given as 0.910 ± 0.025 μm.
Consider `C[C@@H]1CNCCCN1S(=O)(=O)c1cccc2c(O)ncc(F)c12` [Compound R-YK1604, (R)-4-fluoro-5-((2-methyl-1,4-diazacycloheptan-1-yl)sulfonyl)isoquinolin-1-ol], for which the “Cerebral hemorrhage volume score (x ± s)” value in data set [1] amounted to 12.58 ± 1.96. Moreover, in the data set on prostacyclin (PGI2), the “expression of prostacyclin … (0.4 μM)” value amounted to 280.40 ± 9.89 pg/mL, the “expression of prostacyclin … (2 μM)” value came to 279.35 ± 28.69 pg/mL and the “expression of prostacyclin … (10 μM)” value came out at 251.44 ± 42.48 pg/mL. Besides, in data set [2], the half-maximal inhibitory concentration (IC50) at 24 h came out at 210 µM. Moreover, in the data set with nitric oxide (NO), the “nitric oxide secretion … (0.4 μM)” value stood at 1.009 ± 0.064 μm, the “nitric oxide secretion … (2 μM)” value was found to be 0.851 ± 0.032 μm and the “nitric oxide secretion … (10 μM)” value was found to be 0.829 ± 0.064 μm.

The values are drawn from patent publication US12264146B2, “Rho kinase inhibitor, method for preparing same and uses thereof” (BEIJING INCREASE INNOVATIVE DRUG CO., LTD., priority 2018, dated 2025).
